{
  "source": "patent US5888978A",
  "about": "“Method for reducing the severity of gastro-intestinal damage” (Trega Biosciences, Inc., priority 1995, dated 1999)",
  "test_system": "indomethacin treated rats",
  "assay": "indomethacin-induced GI damage in rats (diarrhea and survival)",
  "format": "in vivo, Harlan Sprague-Dawley rats",
  "settings": "Ind-CRA-1 group",
  "method": "As disclosed herein, administration of a CRA reduced the severity of GI damage in indomethacin treated rats. The effect of indomethacin administration on GI damage to rats is a well recognized model for studying the efficacy of agents that can affect GI damage (see, for example, Perkins et al., J. Pharmacol. Expt. Ther. 269:151-156 (1994)). In the model system used in the experiments described in Example I, the appearance of diarrhea and animal survival were determined following administration of indomethacin, alone, or with concurrent treatment using a cytokine regulatory agent.\nThe CRA, Ac-Nle-Gln-His-(D)Phe-Arg-(D)Trp-Gly-NH2 (CRA-1), was prepared as described (U.S. Pat. No. 5,420,109, supra, 1995). Adult male Harlan Sprague-Dawley rats (325-425 g) were divided into four groups (6 rats/group). Rats were weighed every morning and food was removed prior to receiving any treatment. Two groups of rats were pretreated by intraperitoneal (ip) injection of sterile saline, alone (\"control\"), and the remaining two groups were pretreated by ip injection of CRA-1 (100 μg/kg in saline). Pretreatment injections were administered between 8:00-9:00 am.\nOne hr following the pretreatment, one group of control rats was injected ip, on the side opposite the initial injection, with saline (Sal-control) and the other control group was injected with indomethacin (Ind-control; 10 mg/kg in saline, adjusted to pH 7.5-8.5 with NaOH). Similarly, the two groups of CRA-1 treated rats received either saline (Sal-CRA-1) or indomethacin (Ind-CRA-1). At 8 hr and 16 hr after the pretreatment, control rats and CRA-1 rats were administered saline or CRA-1, respectively. Food was returned to the rats after the 8 hr injection. This protocol was repeated for 7 days.",
  "data": [
    {"smiles": "CCCC[C@H](NC(C)=O)C(=O)N[C@@H](CCC(N)=O)C(=O)N[C@@H](Cc1c[nH]cn1)C(=O)N[C@H](Cc1ccccc1)C(=O)N[C@@H](CCCNC(=N)N)C(=O)N[C@H](Cc1c[nH]c2ccccc12)C(=O)NCC(N)=O", "note": "[CRA-1, Ac-Nle-Gln-His-(D)Phe-Arg-(D)Trp-Gly-NH2]", "values": [
      {"measurement": "surviving rats with diarrhea by day 7", "setting": "2 of the surviving 5 rats, CRA-1 100 μg/kg ip plus indomethacin 10 mg/kg ip, all 3 surviving Ind-saline rats had diarrhea", "result": 40, "unit": "%"},
      {"measurement": "surviving rats with diarrhea by day 8", "setting": "3/5, CRA-1 100 μg/kg ip plus indomethacin 10 mg/kg ip", "result": 60, "unit": "%"},
      {"measurement": "survival by day 8", "setting": "5/6, CRA-1 100 μg/kg ip plus indomethacin 10 mg/kg ip, Ind-saline control 66.7% lethality", "result": 83.3, "unit": "%"},
      {"measurement": "rats with diarrhea at day 4", "setting": "6 rats, CRA-1 100 μg/kg ip (pretreatment, 8 hr and 16 hr) plus indomethacin 10 mg/kg ip daily, Ind-saline control 5 of 6 (83.3%)", "result": "none"},
      {"measurement": "rats that had died by day 7", "setting": "CRA-1 100 μg/kg ip plus indomethacin 10 mg/kg ip daily for 7 days, Ind-saline control 3 of 6 died", "result": "1 of the 6"}
    ]}
  ]
}
